Test results from US9006240B2, “Method for assay on the effect of vascularization inhibitor” (Eisai R&D Management Co., Ltd., priority 2005, dated 2015).

Columns and labels:
A375 = assay: Anti-tumor effect in A375 subcutaneous xenograft model; type: in vivo, human; settings: A375 xenograft in nude mice; methanesulfonate 100 mg/kg twice a day, one week, oral; day 8 vs day 1
Procedure: (§1) Human tumor cell lines MDA-MB-231, MDA-MB-468, DU145, AsPC-1 (these four lines were purchased from ATCC), A549 (purchased from Dainippon Pharmaceutical Co., Ltd.), Lovo, SK-OV-3, H526, PC-3, DLD-1, HCT116 (these six lines were purchased from ATCC), SEKI, HMV-1 (these two lines were purchased from JCRB cell bank, National Institute of Biomedical Innovation), LOX (purchased from AntiCancer) and A375 (purchased from Dainippon Pharmaceutical Co., Ltd.) were cultured with RPMI1640 (containing 10% FBS) in a 5% CO2 gas incubator until they reached about 80% confluence. After culturing, cells from each line were recovered with trypsin-EDTA by conventional procedures. The cells were suspended in phosphate buffer to prepare a cell suspension of 1×10^8 cells/ml or 5×10^7 cells/ml. […] The major axis and minor axis of tumor were measured with a Digimatic Caliper (Mitsutoyo). Then, tumor volume, relative tumor volume and ΔT/C were calculated using the following formulas: Tumor volume (TV)=tumor major axis (mm)×tumor minor axis^2 (mm^2)/2 Relative tumor volume (RTV)=tumor volume on the measurement day/tumor volume on the starting day of administration ΔT/C=(tumor volume at day 8 of administration groups−tumor volume at day 1 of administration groups)/(tumor volume at day 8 of control group−tumor volume at day 1 of control group)×100 […]

PC-3 = assay: Anti-tumor effect in PC-3 subcutaneous xenograft model; type: in vivo, human; settings: PC-3 xenograft in nude mice; methanesulfonate 100 mg/kg twice a day, one week, oral; day 8 vs day 1
Procedure: as §1

H526 = assay: Anti-tumor effect in H526 subcutaneous xenograft model; type: in vivo, human; settings: H526 xenograft in nude mice; methanesulfonate 100 mg/kg twice a day, one week, oral; day 8 vs day 1
Procedure: as §1

[1] = system: human non-small cell lung cancer cell line (A549); assay: Combined application of VEGF receptor kinase inhibitor and EGF inhibitor in A549 subcutaneous xenograft model; type: in vivo; settings: nude mice, 4 weeks, control 9.94 ± 0.77
Procedure: Combined Application of VEGF Receptor Kinase Inhibitor and EGF Inhibitor in Human Non-Small Cell Lung Cancer Cell line (A549) Subcutaneous Xenograft Model (In Vivo) […] Then, cells were recovered with trypsin-EDTA. A cell suspension (5×10^7 cells/ml) was prepared with phosphate buffer containing 50% matrigel. The resultant cell suspension was subcutaneously transplanted into the flank of nude (0.1 ml/mouse). From day 10 of transplantation, 4-(3-chloro-4-(cyclopropylaminocarbonyl)aminophenoxy)-7-methoxy-6-quinolinecarboxamide (a methanesulfonate) and erlotinib were orally administered independently or in combination. With respect to 4-(3-chloro-4-(cyclopropylaminocarbonyl)aminophenoxy)-7-methoxy-6-quinolinecarboxamide (a methanesulfonate), it was administered at 3 mg/kg, 10 mg/kg or 30 mg/kg; once a day; for 4 weeks. With respect to erlotinib, it was administered at 50 mg/kg, once a day, for 4 weeks. The major axis and minor axis of tumor were measured with a Digimatic Caliper (Mitsutoyo). Then, tumor volume and relative tumor volume were calculated using the following formulas: […]

DU145 = assay: Anti-tumor effect in DU145 subcutaneous xenograft model; type: in vivo, human; settings: DU145 xenograft in nude mice; methanesulfonate 100 mg/kg twice a day, one week, oral; day 8 vs day 1
Procedure: as §1

LOX = assay: Anti-tumor effect in LOX subcutaneous xenograft model; type: in vivo, human; settings: LOX xenograft in nude mice; methanesulfonate 100 mg/kg twice a day, one week, oral; day 8 vs day 1
Procedure: as §1

HMV-1 = assay: Anti-tumor effect in HMV-1 subcutaneous xenograft model; type: in vivo, human; settings: HMV-1 xenograft in nude mice; methanesulfonate 100 mg/kg twice a day, one week, oral; day 8 vs day 1
Procedure: as §1

MDA-MB-231 = assay: Anti-tumor effect in MDA-MB-231 subcutaneous xenograft model; type: in vivo, human; settings: MDA-MB-231 xenograft in nude mice; methanesulfonate 100 mg/kg twice a day, one week, oral; day 8 vs day 1
Procedure: as §1

[2] = system: human non-small cell lung cancer cell strain (PC-9); assay: Combined application of VEGF receptor kinase inhibitor and EGF inhibitor in PC-9 subcutaneous xenograft model; type: in vivo; settings: PC-9 xenograft, nude mice, 4 weeks, control 7.51 ± 1.69
Procedure: Combined Application of VEGF Receptor Kinase Inhibitor and EGF Inhibitor in Human Non-Small Cell Lung Cancer Cell Strain (PC-9) Subcutaneous Xenograft Model (In Vivo) […] Then, cells were recovered with trypsin-EDTA. A cell suspension (5×10^7 cells/nil) was prepared with phosphate buffer. The resultant cell suspension was subcutaneously transplanted into the flank of nude mice (0.1 ml/mouse). […] The major axis and minor axis of tumor were measured with a Digimatic Caliper (Mitsutoyo). Then, tumor volume and relative tumor volume were calculated using the following formulas: […]

MDA-MB-468 = assay: Anti-tumor effect in MDA-MB-468 subcutaneous xenograft model; type: in vivo, human; settings: MDA-MB-468 xenograft in nude mice; methanesulfonate 100 mg/kg twice a day, one week, oral; day 8 vs day 1
Procedure: as §1

DLD-1 = assay: Anti-tumor effect in DLD-1 subcutaneous xenograft model; type: in vivo, human; settings: DLD-1 xenograft in nude mice; methanesulfonate 100 mg/kg twice a day, one week, oral; day 8 vs day 1
Procedure: as §1

HCT116 = assay: Anti-tumor effect in HCT116 subcutaneous xenograft model; type: in vivo, human; settings: HCT116 xenograft in nude mice; methanesulfonate 100 mg/kg twice a day, one week, oral; day 8 vs day 1
Procedure: as §1

SEKI = assay: Anti-tumor effect in SEKI subcutaneous xenograft model; type: in vivo, human; settings: SEKI xenograft in nude mice; methanesulfonate 100 mg/kg twice a day, one week, oral; day 8 vs day 1
Procedure: as §1

[3] = Compound A 10 mg/kg oral once a day
[4] = Erlotinib 50 mg/kg oral once a day

Row | Compound | ΔT/C (A375) | ΔT/C (PC-3) | ΔT/C (H526) | Relative Tumor Volume at Day 29 Mean ± Standard Deviation ([1]; Compound A 3 mg/kg oral once a day) | Relative Tumor Volume at Day 29 Mean ± Standard Deviation [1, 3] | Relative Tumor Volume at Day 29 Mean ± Standard Deviation ([1]; Compound A 30 mg/kg oral once a day) | ΔT/C (DU145) | ΔT/C (LOX) | ΔT/C (HMV-1) | ΔT/C (MDA-MB-231) | Relative Tumor Volume at Day 29 Mean ± Standard Deviation [2, 3] | ΔT/C (MDA-MB-468) | ΔT/C (DLD-1) | ΔT/C (HCT116) | ΔT/C (SEKI) | Relative Tumor Volume at Day 29 Mean ± Standard Deviation [1, 4] | Relative Tumor Volume at Day 29 Mean ± Standard Deviation [2, 4]
1 | COc1cc2nccc(Oc3ccc(NC(=O)NC4CC4)c(Cl)c3)c2cc1C(N)=O [Compound A, 4-(3-chloro-4-(cyclopropylaminocarbonyl)aminophenoxy)-7-methoxy-6-quinolinecarboxamide] | > 10% | > 10% | > 10% | 4.34 ± 0.80 | 2.65 ± 0.45 | 1.65 ± 0.31 | < −30% | > 10% | > 10% | < −30% | 2.24 ± 0.54 | < −30% | > 10% | > 10% | > 10% |  | 
2 | C#Cc1cccc(Nc2ncnc3cc(OCCOC)c(OCCOC)cc23)c1 [Erlotinib, 4-(3-ethynylphenylamino)-6,7-bis(2-methoxyethoxy)-quinazoline, reference compound] |  |  |  |  |  |  |  |  |  |  |  |  |  |  |  | 5.71 ± 1.84 | 3.30 ± 0.19
